According to ChEMBL document CHEMBL6103607, “Novel Heterocyclic Piperazine Amide Derivatives as Alpha-synuclein PET Ligands for Diagnosis of Parkinson's Disease” (ACS Med Chem Lett, 2025):
pKi: −log10 of the molar value.

Biological target: Amyloid-beta precursor protein (Homo sapiens, UniProt P05067)
Assay: Displacement of [3H]-105 from amyloid-beta (unknown origin) in human brain homogenate assessed as inhibition constant incubated for 90 mins by radioligand binding assay
Format: tissue-based

Chain of Amyloid-beta precursor protein (P05067 whole entry): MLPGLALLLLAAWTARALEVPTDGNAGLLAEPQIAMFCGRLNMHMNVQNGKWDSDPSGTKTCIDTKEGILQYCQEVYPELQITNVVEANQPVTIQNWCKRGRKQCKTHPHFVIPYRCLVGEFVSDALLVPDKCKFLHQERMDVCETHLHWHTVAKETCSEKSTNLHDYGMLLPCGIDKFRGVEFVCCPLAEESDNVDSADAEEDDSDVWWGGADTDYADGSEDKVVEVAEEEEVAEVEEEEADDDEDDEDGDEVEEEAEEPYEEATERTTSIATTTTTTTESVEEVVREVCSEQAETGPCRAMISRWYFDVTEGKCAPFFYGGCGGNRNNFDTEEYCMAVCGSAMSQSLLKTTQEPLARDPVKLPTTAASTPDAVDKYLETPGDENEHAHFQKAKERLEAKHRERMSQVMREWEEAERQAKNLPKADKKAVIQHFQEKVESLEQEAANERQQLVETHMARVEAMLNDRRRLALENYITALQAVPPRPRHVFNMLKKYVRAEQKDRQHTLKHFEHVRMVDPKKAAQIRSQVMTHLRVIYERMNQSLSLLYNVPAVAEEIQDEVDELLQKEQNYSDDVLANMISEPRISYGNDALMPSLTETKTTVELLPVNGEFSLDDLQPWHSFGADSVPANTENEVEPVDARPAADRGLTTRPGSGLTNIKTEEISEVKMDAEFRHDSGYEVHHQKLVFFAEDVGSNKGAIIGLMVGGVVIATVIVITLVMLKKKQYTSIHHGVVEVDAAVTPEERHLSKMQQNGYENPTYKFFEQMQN

pKi | Structure (SMILES)
4.92 | C[C@H]1CN(c2ccc(F)cn2)CCN1c1ncc(NC(=O)c2ccc(N3CC[C@@H](F)C3)nc2)cn1
4.97 | Cc1cocc1-c1ccc(C(=O)Nc2cnc(N3CCN(c4ccccn4)C[C@@H]3C)nc2)cn1
4.97 | C[C@H]1CN(c2ccccn2)CCN1c1ncc(NC(=O)c2ccc(-n3cccn3)nc2)cn1
4.92 | C[C@H]1CN(c2cc([N+](=O)[O-])ccn2)CCN1c1ncc(NC(=O)c2ccc(N3CC(F)(F)C3)nc2)cn1
4.92 | COC[C@H]1CN(c2ccccn2)CCN1c1ncc(NC(=O)c2ccc(-n3cccn3)nc2)cn1
4.92 | C[C@H]1CN(c2ccc(F)cn2)CCN1c1ncc(NC(=O)c2ccc(N3CCC3)nc2)cn1
4.92 | Cc1ccc(N2C[C@@H](C)N(c3ncc(NC(=O)c4ccc(-c5cncc(F)c5)nc4)cn3)[C@@H](C)C2)nc1
4.92 | C[C@H]1CN(c2ccc(F)cn2)CCN1c1ncc(NC(=O)c2ccc(N3CC(F)C3)nc2)cn1
